From US6759557B2, “Melanin production inhibitors and skincare products containing such inhibitors” (Takasago International Corporation, priority 2001, dated 2004) come the findings set out here.

Each structure is given as a SMILES string.

The experiment has as its system melanoma cells B-16. Description: Inhibiting effect on melanin synthesis in pigment cells (whiteness of cell residue observed by eye). Type of experiment: cell-based. Also noted: key to whiteness of cells rated by eye (melanin synthesis inhibition): −: same colour as the comparative solvent example (black); +: slight colour difference from the comparative solvent example (black grey); ++: clear colour difference from the comparative solvent example (white grey); +++: no colour in the cells (white). The conditions noted are these: for whiteness of cells rated by eye (melanin synthesis inhibition): 4 days, B-16 melanoma cells. How it is done: In plastic culture flasks ([…]), 5×10^4 of melanoma cells B-16 were respectively inoculated and cultivated at 37° C. in DMEM culture media each containing 10% of blood serum (Nippon Suisan Co. Ltd) in the presence of 5% of carbon dioxide. After two days of cultivation, test samples diluted with ethanol were added to the culture media, so as to set their concentrations, respectively, at 1.6, 3.1 and 6.3 ppm for the compounds of Formula (1) where X is —CO— or —CHOH—, and at 0.8, 1.6 and 3.1 ppm for the compounds of Formula (1) where X is —CO—CHOH—. The culture media were further cultivated for 4 days.
When the cultivation was terminated, the culture media were removed from the respective flasks and the remaining cells were rinsed with a phosphate buffer solution (PBS hereinafter). The cells in each flask were treated with a culture medium containing trypsin and EDTA (ethylenediaminetetracetic acid) to yield cell suspensions. The latter were subjected to centrifugation, and the cells were recovered.
The obtained cells were once washed with PBS. The residues were observed by eye, and their whiteness was rated as below.

For `OC1CCCCCCCCCCCCCC1` [cyclopentadecanol], the “whiteness of cells rated by eye (melanin synthesis inhibition)” value (“whiteness … (melanin synthesis inhibition)” below) (1.6 ppm in culture medium) is “+”, the “whiteness … (melanin synthesis inhibition)” value (3.1 ppm in culture medium) is “++” and the “whiteness … (melanin synthesis inhibition)” value (6.3 ppm in culture medium) is listed as “+++”.

Take `CCCCCCCCC(=O)CCCCCCCC` [9-heptadecanone, reference compound]: the “whiteness … (melanin synthesis inhibition)” value (3.1 ppm in culture medium) is on record as “−” and the “whiteness … (melanin synthesis inhibition)” value (6.3 ppm in culture medium) was “−”.

In the case of `O=C1CCCCCCCCCCCCCCC=CCCCCCCCCCCCCC1O` (stereo not shown) [2-hydroxy-15-cyclotriacontenone, reference compound], for the setting “3.1 ppm in culture medium”, the “whiteness … (melanin synthesis inhibition)” value was “−”.

For the molecule `O=C1CCCCCCCCC=CCCCCCCCCC1` (mixture of isomers) [10(EZ)-cycloeicosenone], the “whiteness … (melanin synthesis inhibition)” value (1.6 ppm in culture medium) was “++”, the “whiteness … (melanin synthesis inhibition)” value (3.1 ppm in culture medium) is listed as “+++” and the “whiteness … (melanin synthesis inhibition)” value (6.3 ppm in culture medium) is reported as “+++”.

As to `O=C1CCCCCCCCC=CCCCCCCC1O` (stereo not shown) [2-hydroxy-9-cyclooctadecenone], the “whiteness … (melanin synthesis inhibition)” value reads like this: (0.8 ppm in culture medium) “+”; (1.6 ppm in culture medium) “++”; (3.1 ppm in culture medium) “+++”.

In the case of `CCCCCCCC(=O)CCCCCCC` [8-pentadecanone, reference compound], the “whiteness … (melanin synthesis inhibition)” value (3.1 ppm in culture medium) is reported as “−” and the “whiteness … (melanin synthesis inhibition)” value (6.3 ppm in culture medium) is recorded as “−”.

With `CC(=O)CCC1=C(C)CCCC1(C)C` [dihydro-β-ionone, reference compound], the “whiteness … (melanin synthesis inhibition)” value reads like this: (1.6 ppm in culture medium) “−”; (3.1 ppm in culture medium) “+”; (6.3 ppm in culture medium) “++”.

On to `OC1CCCCCCCCCCCCCCCC1` [cycloheptadecanol], for which the “whiteness … (melanin synthesis inhibition)” value (1.6 ppm in culture medium) is reported as “+”, the “whiteness … (melanin synthesis inhibition)” value (3.1 ppm in culture medium) is listed as “++” and the “whiteness … (melanin synthesis inhibition)” value (6.3 ppm in culture medium) is “+++”.

With `O=C1CCCCCCCCCCCCCCCCCCC1O` (stereo not shown) [2-hydroxycycloeicosanone], the “whiteness … (melanin synthesis inhibition)” value is reported as “++” (0.8 ppm in culture medium), “+++” (1.6 ppm in culture medium) and “+++” (3.1 ppm in culture medium).

Regarding `CC1CCCCCCCCCCCCC(=O)C1` (stereo not shown) [1-3-methylcyclopentadecanone], the “whiteness … (melanin synthesis inhibition)” value (1.6 ppm in culture medium) is given as “+”, the “whiteness … (melanin synthesis inhibition)” value (3.1 ppm in culture medium) is recorded as “++” and the “whiteness … (melanin synthesis inhibition)” value (6.3 ppm in culture medium) is “+++”.

Turning to `O=C1CCCCCCCCCCCCCCCCCCC1` [cycloeicosanone], the “whiteness … (melanin synthesis inhibition)” value is reported as “+” (1.6 ppm in culture medium), “++” (3.1 ppm in culture medium) and “+++” (6.3 ppm in culture medium).

As to `CC1C=CCCCCCCCCCCC(=O)CC1` (mixture of isomers) [5(EZ)-4-methylcyclohexadecenone], the “whiteness … (melanin synthesis inhibition)” value (1.6 ppm in culture medium) is “+”, the “whiteness … (melanin synthesis inhibition)” value (3.1 ppm in culture medium) was “++” and the “whiteness … (melanin synthesis inhibition)” value (6.3 ppm in culture medium) is given as “+++”.

As to `O=C1CCCCCCCCCC=CCCCCCCCC1O` (stereo not shown) [2-hydroxy-10-cycloeicosenone], the “whiteness … (melanin synthesis inhibition)” value by setting is: (0.8 ppm in culture medium) “++”; (1.6 ppm in culture medium) “+++”; (3.1 ppm in culture medium) “+++”.

Regarding `O=C1CCCCCCCCCCCCCC1` [cyclopentadecanone], the “whiteness … (melanin synthesis inhibition)” value is, setting by setting: (1.6 ppm in culture medium) “+”; (3.1 ppm in culture medium) “++”; (6.3 ppm in culture medium) “+++”.

As for `CCCCCCCCCCCCCC(=O)CC` [3-hexadecanone, reference compound], the “whiteness … (melanin synthesis inhibition)” value by setting is: (3.1 ppm in culture medium) “−”; (6.3 ppm in culture medium) “−”.

Turning to `CC1C=CCCCCCCCCCCC(O)CC1` (mixture of isomers) [5(EZ)-4-methylcyclohexadecenol], the “whiteness … (melanin synthesis inhibition)” value is “+” (1.6 ppm in culture medium), “++” (3.1 ppm in culture medium) and “+++” (6.3 ppm in culture medium).

Turning to `O=C1CCCCCCCCCCCC=CCCCCCCCCCC1O` (stereo not shown) [2-hydroxy-12-cyclotetracosenone], the “whiteness … (melanin synthesis inhibition)” value by setting is: (0.8 ppm in culture medium) “++”; (1.6 ppm in culture medium) “+++”; (3.1 ppm in culture medium) “+++”.

For the molecule `O=C1CCC/C=C/CCCCCCCCCC1` [5(E)-cyclohexadecenone], the “whiteness … (melanin synthesis inhibition)” value is, setting by setting: (1.6 ppm in culture medium) “+”; (3.1 ppm in culture medium) “++”; (6.3 ppm in culture medium) “+++”.

For the molecule `CCCCCCCCCCCCC(C)=O` [2-tetradecanone, reference compound], the “whiteness … (melanin synthesis inhibition)” value by setting is: (3.1 ppm in culture medium) “−”; (6.3 ppm in culture medium) “−”.

Consider `OC1CCCCCCCCC=CCCCCCCCCC1` (mixture of isomers) [10(EZ)-cycloeicosenol], for which the “whiteness … (melanin synthesis inhibition)” value is given as “++” (1.6 ppm in culture medium), “+++” (3.1 ppm in culture medium) and “+++” (6.3 ppm in culture medium).

With `OC[C@H]1O[C@@H](Oc2ccc(O)cc2)[C@H](O)[C@@H](O)[C@@H]1O` [arbutin, reference compound], the “whiteness … (melanin synthesis inhibition)” value is reported as “−” (1.6 ppm in culture medium), “+” (3.1 ppm in culture medium) and “++” (6.3 ppm in culture medium). Besides, the “melanin synthesis inhibiting activity (in words)” value (concentration not given) is listed as “much weaker melanin-synthesis inhibiting activities”.

With `O=C1CCC/C=C\CCCCCCCCCC1` [5(Z)-cyclohexadecenone], the “whiteness … (melanin synthesis inhibition)” value by setting is: (1.6 ppm in culture medium) “+”; (3.1 ppm in culture medium) “++”; (6.3 ppm in culture medium) “+++”.

`O=C1CCCCCCCCCCCCCCC1O` (stereo not shown) [2-hydroxycyclohexadecanone]: the “whiteness … (melanin synthesis inhibition)” value runs as follows: (1.6 ppm in culture medium) “−”; (3.1 ppm in culture medium) “+”.

On to `OC1CCCCCCCCCCCCCCC1` [cyclohexadecanol], for which the “whiteness … (melanin synthesis inhibition)” value by setting is: (1.6 ppm in culture medium) “+”; (3.1 ppm in culture medium) “++”; (6.3 ppm in culture medium) “+++”.

Take `O=C1CCCCCCCC=CCCCCCCC1` (mixture of isomers) [9(EZ)-cycloheptadecenone]: the “whiteness … (melanin synthesis inhibition)” value reads like this: (1.6 ppm in culture medium) “+”; (3.1 ppm in culture medium) “++”; (6.3 ppm in culture medium) “+++”.

On to `CC(O)CCC1C(C)CCCC1(C)C` (stereo not shown) [tetrahydroionol, reference compound], for which the “whiteness … (melanin synthesis inhibition)” value reads like this: (1.6 ppm in culture medium) “−”; (3.1 ppm in culture medium) “+”; (6.3 ppm in culture medium) “++”.

For the molecule `O=C1CCCCCCCCCCC1` [cyclododecanone, reference compound], the “whiteness … (melanin synthesis inhibition)” value (3.1 ppm in culture medium) is “−” and the “whiteness … (melanin synthesis inhibition)” value (6.3 ppm in culture medium) is recorded as “+”.

As for `O=C1CCCCCCCC=CCCCCCC1O` (stereo not shown) [2-hydroxy-8-cyclohexadecenone], the “whiteness … (melanin synthesis inhibition)” value is “−” (1.6 ppm in culture medium) and “+” (3.1 ppm in culture medium).
